{
  "source": "ChEMBL document CHEMBL1147511",
  "about": "(Bioorg Med Chem Lett, 2004)",
  "assay_type_in_all_cases": "protein-complex assay",
  "key": {"[1]": {"biological_target": "T1, Neuronal acetylcholine receptor; alpha3/beta4 (Rattus norvegicus, UniProt P04757+P12392)", "T1 sequence (P04757 whole entry)": "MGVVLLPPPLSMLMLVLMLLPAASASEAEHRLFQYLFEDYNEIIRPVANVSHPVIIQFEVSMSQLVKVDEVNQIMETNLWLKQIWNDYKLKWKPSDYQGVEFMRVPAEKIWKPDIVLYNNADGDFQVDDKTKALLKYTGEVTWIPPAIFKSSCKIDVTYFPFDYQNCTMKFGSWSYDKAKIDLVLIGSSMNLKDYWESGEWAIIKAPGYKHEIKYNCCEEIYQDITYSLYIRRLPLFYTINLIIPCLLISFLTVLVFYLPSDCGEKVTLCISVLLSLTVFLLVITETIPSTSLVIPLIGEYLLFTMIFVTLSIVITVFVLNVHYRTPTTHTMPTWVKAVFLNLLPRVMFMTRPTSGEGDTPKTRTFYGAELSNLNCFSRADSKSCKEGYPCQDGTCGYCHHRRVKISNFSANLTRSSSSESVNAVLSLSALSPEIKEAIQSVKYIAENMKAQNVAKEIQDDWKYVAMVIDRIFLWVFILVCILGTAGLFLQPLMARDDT", "T1 sequence (P12392 whole entry)": "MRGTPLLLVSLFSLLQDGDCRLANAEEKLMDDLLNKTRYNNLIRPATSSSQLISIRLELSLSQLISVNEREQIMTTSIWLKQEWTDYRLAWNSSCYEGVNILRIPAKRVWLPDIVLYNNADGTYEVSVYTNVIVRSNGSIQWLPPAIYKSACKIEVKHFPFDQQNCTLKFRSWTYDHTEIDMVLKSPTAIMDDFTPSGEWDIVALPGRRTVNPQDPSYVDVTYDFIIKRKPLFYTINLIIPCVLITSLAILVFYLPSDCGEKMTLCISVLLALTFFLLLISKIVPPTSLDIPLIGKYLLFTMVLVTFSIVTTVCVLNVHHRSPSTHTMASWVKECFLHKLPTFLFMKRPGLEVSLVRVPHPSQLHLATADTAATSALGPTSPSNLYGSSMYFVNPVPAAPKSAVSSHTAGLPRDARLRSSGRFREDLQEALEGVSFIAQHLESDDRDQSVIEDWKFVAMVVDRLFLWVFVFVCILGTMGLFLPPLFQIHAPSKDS", "experiment": "Binding affinity towards Nicotinic acetylcholine receptor alpha3-beta4 using [3H]epibatidine"}, "[2]": {"biological_target": "Neuronal acetylcholine receptor; alpha2/beta2 (Rattus norvegicus, UniProt P12389+P12390)", "sequence (P12389 whole entry)": "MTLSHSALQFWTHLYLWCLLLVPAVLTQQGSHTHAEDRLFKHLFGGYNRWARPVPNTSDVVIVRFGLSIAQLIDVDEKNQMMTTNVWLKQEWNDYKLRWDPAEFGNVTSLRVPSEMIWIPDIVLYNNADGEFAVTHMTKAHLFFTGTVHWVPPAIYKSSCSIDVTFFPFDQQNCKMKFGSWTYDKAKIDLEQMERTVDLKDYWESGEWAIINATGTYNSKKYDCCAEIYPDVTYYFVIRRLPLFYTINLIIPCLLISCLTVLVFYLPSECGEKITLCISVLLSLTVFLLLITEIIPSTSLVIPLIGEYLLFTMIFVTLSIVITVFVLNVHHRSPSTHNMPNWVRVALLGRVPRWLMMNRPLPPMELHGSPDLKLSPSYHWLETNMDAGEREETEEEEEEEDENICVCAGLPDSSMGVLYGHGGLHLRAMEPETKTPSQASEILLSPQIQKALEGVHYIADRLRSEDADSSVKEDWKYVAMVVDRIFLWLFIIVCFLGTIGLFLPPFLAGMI", "sequence (P12390 whole entry)": "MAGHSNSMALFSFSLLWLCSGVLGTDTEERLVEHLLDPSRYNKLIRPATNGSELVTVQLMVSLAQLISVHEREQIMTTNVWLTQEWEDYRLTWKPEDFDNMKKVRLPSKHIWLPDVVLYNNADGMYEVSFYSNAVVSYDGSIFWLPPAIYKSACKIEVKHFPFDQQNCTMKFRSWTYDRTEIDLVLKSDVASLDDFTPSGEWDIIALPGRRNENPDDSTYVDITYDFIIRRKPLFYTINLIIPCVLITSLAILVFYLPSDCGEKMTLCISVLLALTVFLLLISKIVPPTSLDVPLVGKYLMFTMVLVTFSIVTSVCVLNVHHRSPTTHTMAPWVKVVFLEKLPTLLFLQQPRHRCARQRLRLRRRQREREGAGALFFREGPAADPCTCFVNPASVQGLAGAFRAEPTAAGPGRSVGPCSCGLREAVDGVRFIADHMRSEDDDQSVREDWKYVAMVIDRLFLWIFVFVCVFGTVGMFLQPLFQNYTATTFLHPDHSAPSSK", "experiment": "Binding affinity towards nicotinic acetylcholine receptor alpha2-beta2 using [3H]epibatidine"}, "[3]": {"biological_target": "Neuronal acetylcholine receptor; alpha4/beta2 (Rattus norvegicus, UniProt P09483+P12390)", "sequence (P09483 whole entry)": "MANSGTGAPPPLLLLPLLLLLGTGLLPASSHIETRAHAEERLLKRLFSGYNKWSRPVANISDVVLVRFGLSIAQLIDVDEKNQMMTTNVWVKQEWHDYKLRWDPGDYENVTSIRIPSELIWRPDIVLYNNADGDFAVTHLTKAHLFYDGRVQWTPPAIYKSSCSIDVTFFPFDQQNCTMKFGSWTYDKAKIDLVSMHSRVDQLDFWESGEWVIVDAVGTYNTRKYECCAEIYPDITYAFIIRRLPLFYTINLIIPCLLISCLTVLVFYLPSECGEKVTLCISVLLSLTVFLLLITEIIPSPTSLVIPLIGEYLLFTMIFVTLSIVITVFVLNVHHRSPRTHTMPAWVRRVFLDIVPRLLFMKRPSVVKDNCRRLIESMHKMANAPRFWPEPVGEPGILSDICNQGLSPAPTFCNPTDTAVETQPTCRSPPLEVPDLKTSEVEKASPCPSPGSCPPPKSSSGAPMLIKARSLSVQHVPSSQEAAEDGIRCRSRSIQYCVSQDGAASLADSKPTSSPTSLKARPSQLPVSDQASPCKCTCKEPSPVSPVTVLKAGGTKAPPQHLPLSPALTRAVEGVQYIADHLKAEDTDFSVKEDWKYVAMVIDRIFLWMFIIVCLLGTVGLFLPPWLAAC", "sequence (P12390 whole entry)": "as the sequence (P12390 whole entry) above", "experiment": "Binding affinity towards Nicotinic acetylcholine receptor alpha4-beta2 using [3H]epibatidine"}, "[4]": {"biological_target": "Neuronal acetylcholine receptor; alpha3/beta2 (Rattus norvegicus, UniProt P04757+P12390)", "sequence (P04757 whole entry)": "as the sequence (P04757 whole entry) above", "sequence (P12390 whole entry)": "as the sequence (P12390 whole entry) above", "experiment": "Binding affinity towards Nicotinic acetylcholine receptor alpha3-beta2 using [3H]epibatidine"}, "[5]": {"biological_target": "Neuronal acetylcholine receptor; alpha4/beta4 (Rattus norvegicus, UniProt P09483+P12392)", "sequence (P09483 whole entry)": "as the sequence (P09483 whole entry) above", "sequence (P12392 whole entry)": "as the sequence (P12392 whole entry) above", "experiment": "Binding affinity towards Nicotinic acetylcholine receptor alpha4-beta4 using [3H]epibatidine"}, "[6]": {"biological_target": "Neuronal acetylcholine receptor; alpha2/beta4 (Rattus norvegicus, UniProt P12389+P12392)", "sequence (P12389 whole entry)": "as the sequence (P12389 whole entry) above", "sequence (P12392 whole entry)": "as the sequence (P12392 whole entry) above", "experiment": "Binding affinity towards Nicotinic acetylcholine receptor alpha2-beta4 using [3H]epibatidine"}, "[7]": {"biological_target": "T1, Neuronal acetylcholine receptor; alpha3/beta4", "experiment": "Binding affinity towards Nicotinic acetylcholine receptor alpha3-beta4"}},
  "data": [
    {"smiles": "Clc1ccc(C2CC3CCC2N3CCCCCCCCCCN2C3CCC2C(c2ccc(Cl)nc2)C3)cn1", "note": "(centres undefined)", "values": [
      {"measurement": "Ki", "setting": "[1]", "value": 138, "unit": "nM"},
      {"measurement": "Ki", "setting": "[2]", "value": 7.51, "unit": "nM"},
      {"measurement": "Ki", "setting": "[3]", "value": 21.6, "unit": "nM"},
      {"measurement": "Ki", "setting": "[4]", "value": 12.6, "unit": "nM"},
      {"measurement": "Ki", "setting": "[5]", "value": 61.3, "unit": "nM"},
      {"measurement": "Ki", "setting": "[6]", "value": 71.7, "unit": "nM"}
    ]},
    {"smiles": "Clc1ccc(C2CC3CCC2N3CCCCCCN2C3CCC2C(c2ccc(Cl)nc2)C3)cn1", "note": "(centres undefined)", "values": [
      {"measurement": "Ki", "setting": "[1]", "value": 82.2, "unit": "nM"},
      {"measurement": "Ki", "setting": "[2]", "value": 3.13, "unit": "nM"},
      {"measurement": "Ki", "setting": "[3]", "value": 9.05, "unit": "nM"},
      {"measurement": "Ki", "setting": "[4]", "value": 6.19, "unit": "nM"},
      {"measurement": "Ki", "setting": "[5]", "value": 40.4, "unit": "nM"},
      {"measurement": "Ki", "setting": "[6]", "value": 47.8, "unit": "nM"}
    ]},
    {"smiles": "Clc1ccc(C2CC3CCC2N3CCCN2C3CCC2C(c2ccc(Cl)nc2)C3)cn1", "note": "(centres undefined)", "values": [
      {"measurement": "Ki", "setting": "[1]", "value": 112, "unit": "nM"},
      {"measurement": "Ki", "setting": "[2]", "value": 5.53, "unit": "nM"},
      {"measurement": "Ki", "setting": "[3]", "value": 15.7, "unit": "nM"},
      {"measurement": "Ki", "setting": "[4]", "value": 8.99, "unit": "nM"},
      {"measurement": "Ki", "setting": "[5]", "value": 54.2, "unit": "nM"},
      {"measurement": "Ki", "setting": "[6]", "value": 57.3, "unit": "nM"}
    ]},
    {"smiles": "Clc1ccc(C2CC3CCC2N3CCN2C3CCC2C(c2ccc(Cl)nc2)C3)cn1", "note": "(centres undefined)", "values": [
      {"measurement": "Ki", "setting": "[7]", "value": 47.8, "unit": "nM"},
      {"measurement": "Ki", "setting": "[2]", "value": 2.08, "unit": "nM"},
      {"measurement": "Ki", "setting": "[3]", "value": 9.33, "unit": "nM"},
      {"measurement": "Ki", "setting": "[4]", "value": 5.44, "unit": "nM"},
      {"measurement": "Ki", "setting": "[5]", "value": 27.7, "unit": "nM"},
      {"measurement": "Ki", "setting": "[6]", "value": 26.8, "unit": "nM"}
    ]}
  ]
}
